# The supplement of paper PMC11061612
# What was measured:
# Test in all cases: combination Emax (second highest fraction inhibited in the dose matrix, 72 h); higher = more inhibition; extreme values may be limits of the assay
# [1] = system: NCI-H524 (Small Cell Lung Carcinoma)
# In short: (§1)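 Cell lines grown in DMEM/F12 or RPMI with 10% FBS were plated in 1536-well plates and held 24 hours at 37°C, 5% CO2 before 72 hours of exposure to two-drug dose matrices, with DMSO typically at 0.2%. CellTiter-Glo 2.0 luminescence gave viability, which was converted to inhibition. Vehicle wells were set to 0 and blank wells to 1. Combination Emax is the second-highest inhibition in the matrix, and Bliss excess is the observed combination effect minus the expected EA + EB − EA·EB, where EA and EB are the single-agent effects.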
# [2] = system: OVCAR-5 (Ovarian Carcinoma)
# In short: as §1
# A673 (Ewing's Sarcoma) = system: A673 (Ewing's Sarcoma)
# In short: as §1
# [3] = system: ESS-1 (Other Solid Carcinomas)
# In short: as §1
# NCI-H2722 (Mesothelioma) = system: NCI-H2722 (Mesothelioma)
# In short: as §1
# [4] = system: TGBC1TKB (Biliary Tract Carcinoma)
# In short: as §1
# [5] = system: Hs-746T (Gastric Carcinoma)
# In short: as §1
# [6] = system: SAS (Oral Cavity Carcinoma)
# In short: as §1
# [7] = system: Detroit562 (Head and Neck Carcinoma)
# In short: as §1
# [8] = system: NCI-H209 (Small Cell Lung Carcinoma)
# In short: as §1
Structure (SMILES),combination Emax [1],combination Emax [2],combination Emax (A673 (Ewing's Sarcoma)),combination Emax [3],combination Emax (NCI-H2722 (Mesothelioma)),combination Emax [4],combination Emax [5],combination Emax [6],combination Emax [7],combination Emax [8]
"NC1(C(=O)N[C@@H](CCO)c2ccc(Cl)cc2)CCN(c2ncnc3[nH]ccc23)CC1 [Capivasertib] + CC(=O)c1c(C)c2cnc(Nc3ccc(N4CCNCC4)cn3)nc2n(C2CCCC2)c1=O [Palbociclib] (first compound max 10 µM, 7x7, partner max 10 µM)",0.666,0.455,0.271,0.593,0.326,0.344,0.588,0.575,0.783,0.603
"CC(=O)c1c(C)c2cnc(Nc3ccc(N4CCNCC4)cn3)nc2n(C2CCCC2)c1=O [Palbociclib] + Cc1c2c(nn1C)CSCc1cc(n(C)n1)CSc1cc(c3ccccc3c1)OCCCc1c(C(=O)O)n(C)c3c-2c(Cl)ccc13 [AZD5991] (first compound max 10 µM, 7x7, partner max 1 µM)",0.808,0.389,0.453,0.266,0.213,0.164,0.299,0.538,0.569,0.908
"Cc1c2c(nn1C)CSCc1cc(n(C)n1)CSc1cc(c3ccccc3c1)OCCCc1c(C(=O)O)n(C)c3c-2c(Cl)ccc13 [AZD5991] + CN(C)CCCOc1ccc(-c2ccc3ncc4c(c3c2)n(C2CCOCC2)c(=O)n4C)cn1 [AZD0156] (first compound max 1 µM, 7x7, partner max 1 µM)",0.452,0.251,0.438,0.36,0.243,0.219,0.358,0.268,0.269,0.544
"COc1nnc2ccc(N3CCC(c4ccc(OCCN5CCN(C)C(=O)[C@H]5C)cc4)CC3)nn12 [AZD5153] + Cn1cnc2c(F)c(Nc3ccc(Br)cc3Cl)c(C(=O)NOCCO)cc21 [Selumetinib] (first compound max 1 µM, 7x7, partner max 10 µM)",0.575,0.685,0.604,0.585,0.516,0.37,0.731,0.86,0.792,0.508
"COc1nnc2ccc(N3CCC(c4ccc(OCCN5CCN(C)C(=O)[C@H]5C)cc4)CC3)nn12 [AZD5153] + C[C@@H]1COCCN1C2=NC(=NC(=C2)C3(CC3)[S@](=N)(=O)C)C4=C5C=CNC5=NC=C4 [AZD6738] (first compound max 1 µM, 7x7, partner max 10 µM)",0.915,0.744,0.84,0.949,0.589,0.508,0.63,0.921,0.919,0.908
"NC1(C(=O)N[C@@H](CCO)c2ccc(Cl)cc2)CCN(c2ncnc3[nH]ccc23)CC1 [Capivasertib] + Cn1cnc2c(F)c(Nc3ccc(Br)cc3Cl)c(C(=O)NOCCO)cc21 [Selumetinib] (first compound max 10 µM, 7x7, partner max 10 µM)",0.303,0.69,0.469,0.526,0.336,0.475,0.691,0.615,0.798,0.163
"COc1nnc2ccc(N3CCC(c4ccc(OCCN5CCN(C)C(=O)[C@H]5C)cc4)CC3)nn12 [AZD5153] + C=CCn1c(=O)c2cnc(Nc3ccc(N4CCN(C)CC4)cc3)nc2n1-c1cccc(C(C)(C)O)n1 [AZD1775] (first compound max 1 µM, partner max 1 µM)",0.908,0.563,0.602,0.898,0.58,0.296,0.535,0.823,0.823,0.912
"Cc1c2c(nn1C)CSCc1cc(n(C)n1)CSc1cc(c3ccccc3c1)OCCCc1c(C(=O)O)n(C)c3c-2c(Cl)ccc13 [AZD5991] + C[C@@H](Nc1cc(F)cc(F)c1)c1cc(C(=O)N(C)C)cc2c(=O)cc(N3CCOCC3)oc12 [AZD8186] (first compound max 1 µM, 7x7, partner max 3 µM)",0.436,0.267,0.557,0.372,0.197,0.377,0.487,0.321,0.305,0.384
"Cn1cnc2c(F)c(Nc3ccc(Br)cc3Cl)c(C(=O)NOCCO)cc21 [Selumetinib] + CC(C)n1c(=O)n(C)c2cnc3cc(F)c(-c4ccc(OCCCN5CCCCC5)nc4)cc3c21 [AZD1390] (first compound max 10 µM, 7x7, partner max 0.3 µM)",0.0936,0.563,0.185,0.246,0.0639,0.152,0.411,0.408,0.367,0.0904
"CC1(C)CCC(CN2CCN(c3ccc(C(=O)NS(=O)(=O)c4ccc(NCC5CCOCC5)c([N+](=O)[O-])c4)c(Oc4cnc5[nH]ccc5c4)c3)CC2)=C(c2ccc(Cl)cc2)C1 [Venetoclax] + C1CN(CCC1(C(=O)N[C@@H](CCO)C2=CC=C(C=C2)Cl)N)C3=NC=NC4=C3C=CN4 [Capivasertib] (first compound max 1 µM, 7x7, partner max 3 µM)",0.166,0.262,0.588,0.891,0.162,0.309,0.275,0.286,0.346,0.456
"CN(CCO)CC[C@H](CSc1ccccc1)Nc1ccc(S(=O)(=O)NC(=O)c2ccc(N3CCC([C@@H](O)c4ccccc4-c4ccc(Cl)cc4)CC3)cc2)cc1S(=O)(=O)C(F)(F)F [AZD4320] + C=CCn1c(=O)c2cnc(Nc3ccc(N4CCN(C)CC4)cc3)nc2n1-c1cccc(C(C)(C)O)n1 [AZD1775] (first compound max 1 µM, partner max 1 µM)",0.952,0.357,1,1,0.55,0.508,0.738,0.647,0.684,1
"CC(=O)c1c(C)c2cnc(Nc3ccc(N4CCNCC4)cn3)nc2n(C2CCCC2)c1=O [Palbociclib] + Cn1cnc2c(F)c(Nc3ccc(Br)cc3Cl)c(C(=O)NOCCO)cc21 [Selumetinib] (first compound max 10 µM, 7x7, partner max 10 µM)",0.739,0.587,0.177,0.283,0.113,0.167,0.49,0.711,0.588,0.594
"Cn1cnc2c(F)c(Nc3ccc(Br)cc3Cl)c(C(=O)NOCCO)cc21 [Selumetinib] + C=CCn1c(=O)c2cnc(Nc3ccc(N4CCN(C)CC4)cc3)nc2n1-c1cccc(C(C)(C)O)n1 [AZD1775] (first compound max 10 µM, partner max 1 µM)",0.617,0.58,0.203,0.936,0.304,0.233,0.636,0.678,0.639,0.858
"NC1(C(=O)N[C@@H](CCO)c2ccc(Cl)cc2)CCN(c2ncnc3[nH]ccc23)CC1 [Capivasertib] + CC(C)n1c(=O)n(C)c2cnc3cc(F)c(-c4ccc(OCCCN5CCCCC5)nc4)cc3c21 [AZD1390] (first compound max 10 µM, 7x7, partner max 0.3 µM)",0.343,0.32,0.292,0.46,0.34,0.358,0.332,0.26,0.599,0.17
"CC1(C)CCC(CN2CCN(c3ccc(C(=O)NS(=O)(=O)c4ccc(NCC5CCOCC5)c([N+](=O)[O-])c4)c(Oc4cnc5[nH]ccc5c4)c3)CC2)=C(c2ccc(Cl)cc2)C1 [Venetoclax] + Cc1cc2ncnn2cc1Nc1ncc2c(n1)n(C1CCOCC1)c(=O)n2C [AZD7648] (first compound max 1 µM, 7x7, partner max 10 µM)",0.308,0.339,0.597,0.886,0.25,0.297,0.226,0.256,0.304,0.642
"COc1nnc2ccc(N3CCC(c4ccc(OCCN5CCN(C)C(=O)[C@H]5C)cc4)CC3)nn12 [AZD5153] + CCN(CCO)CCCOc1ccc2c(Nc3cc(CC(=O)Nc4cccc(F)c4)[nH]n3)ncnc2c1 [AZD2811] (first compound max 1 µM, 7x7, partner max 1 µM)",0.97,0.545,0.616,0.809,0.521,0.307,0.572,0.819,0.892,0.458
"Cc1c2c(nn1C)CSCc1cc(n(C)n1)CSc1cc(c3ccccc3c1)OCCCc1c(C(=O)O)n(C)c3c-2c(Cl)ccc13 [AZD5991] + CC1(C)CCC(CN2CCN(c3ccc(C(=O)NS(=O)(=O)c4ccc(NCC5CCOCC5)c([N+](=O)[O-])c4)c(Oc4cnc5[nH]ccc5c4)c3)CC2)=C(c2ccc(Cl)cc2)C1 [Venetoclax] (first compound max 1 µM, 7x7, partner max 1 µM)",0.629,0.159,0.868,0.39,0.122,0.161,0.203,0.184,0.156,0.996
"CC1(C)CCC(CN2CCN(c3ccc(C(=O)NS(=O)(=O)c4ccc(NCC5CCOCC5)c([N+](=O)[O-])c4)c(Oc4cnc5[nH]ccc5c4)c3)CC2)=C(c2ccc(Cl)cc2)C1 [Venetoclax] + C[C@@H]1COCCN1C2=NC(=NC(=C2)C3(CC3)[S@](=N)(=O)C)C4=C5C=CNC5=NC=C4 [AZD6738] (first compound max 1 µM, 7x7, partner max 10 µM)",0.748,0.768,0.89,0.979,0.384,0.46,0.508,0.834,0.829,0.981
"CC1(C)CCC(CN2CCN(c3ccc(C(=O)NS(=O)(=O)c4ccc(NCC5CCOCC5)c([N+](=O)[O-])c4)c(Oc4cnc5[nH]ccc5c4)c3)CC2)=C(c2ccc(Cl)cc2)C1 [Venetoclax] + CN(C)CCCOc1ccc(-c2ccc3ncc4c(c3c2)n(C2CCOCC2)c(=O)n4C)cn1 [AZD0156] (first compound max 1 µM, 7x7, partner max 1 µM)",0.321,0.405,0.835,0.93,0.175,0.244,0.226,0.256,0.212,0.528
